{"source": "ChEMBL document CHEMBL5036361", "about": "“Structurally Diverse Sesquiterpenoid Glycoside Esters from Pittosporum qinlingense with Anti-neuroinflammatory Activity” (J Nat Prod, 2022)", "key": {"BV-2 [1]": {"test_system": "BV-2", "assay": "Antineuroinflammatory activity against mouse BV-2 cells assessed as inhibition of LPS-induced NO production incubated for 24 hrs by Griess assay", "assay_type": "functional, cell-based", "settings": "BV-2, 24 h"}, "BV-2 [2]": {"test_system": "BV-2", "assay": "Cytotoxicity against mouse BV-2 cells at 6.25 to 100 uM after 24 hrs by MTT assay", "assay_type": "cell-based", "settings": "bv-2, 24 h, dose 6.25-100 µM"}, "BV-2 [3]": {"test_system": "BV-2", "assay": "Downregulation of LPS-induced COX-2 expression in mouse BV-2 cells at 1.25 to 10 uM preincubated for 1 hr followed by LPS stimulation for 24 hrs by western blot analysis", "assay_type": "functional, cell-based", "settings": "dose 1.25-10 µM"}, "BV-2 [4]": {"test_system": "BV-2", "assay": "Downregulation of LPS-induced iNOS expression in mouse BV-2 cells at 1.25 to 10 uM preincubated for 1 hr followed by LPS stimulation for 24 hrs by western blot analysis", "assay_type": "functional, cell-based", "settings": "dose 1.25-10 µM"}}, "note": "The source made the active and inactive calls. The calls are words filed in the database; no cut-off is given here."}
{"smiles": "C=C1C[C@H](O[C@@H]2O[C@H](C)[C@H](O)[C@H](OC(=O)/C(C)=C/C)[C@H]2OC(C)=O)[C@H]2[C@@H]([C@H]3[C@@H]1CC[C@]3(C)O)C2(C)C", "values": [{"measurement": "IC50", "setting": "BV-2 [1]", "result": "> 50", "unit": "µM"}, {"measurement": "Activity", "setting": "BV-2 [2]", "result": "Non-Toxic"}]}
{"smiles": "C/C=C(/C)C(=O)O[C@H]1[C@@H](OC(C)=O)[C@@H](C)O[C@@H](O[C@]2(C)CC[C@@H]3[C@H]([C@@H]4[C@H](C)CC[C@@H]42)C3(C)C)[C@@H]1OC(C)=O", "values": [{"measurement": "IC50", "setting": "BV-2 [1]", "result": 0.97, "unit": "µM"}, {"measurement": "Activity", "setting": "BV-2 [2]", "result": "Non-Toxic"}, {"measurement": "Activity", "setting": "BV-2 [3]", "result": "Active"}, {"measurement": "Activity", "setting": "BV-2 [4]", "result": "inactive"}]}
{"smiles": "CC1(C)[C@H]2[C@H]3[C@@H](CC[C@@]3(C)O)[C@](C)(O)CC[C@H]21", "values": [{"measurement": "IC50", "setting": "BV-2 [1]", "result": "> 50", "unit": "µM"}, {"measurement": "Activity", "setting": "BV-2 [2]", "result": "Non-Toxic"}]}
{"smiles": "CCC(C)C(=O)O[C@H]1[C@@H](O)[C@@H](C)O[C@@H](O[C@]2(C)CC[C@@H]3[C@H]([C@@H]4[C@H](C)CC[C@@H]42)C3(C)C)[C@@H]1OC(C)=O", "note": "(some centres not stated)", "values": [{"measurement": "IC50", "setting": "BV-2 [1]", "result": "> 50", "unit": "µM"}, {"measurement": "Activity", "setting": "BV-2 [2]", "result": "Non-Toxic"}]}
{"smiles": "C=C1C[C@@H](O[C@@H]2O[C@H](C)[C@H](O)[C@H](OC(=O)/C(C)=C/C)[C@H]2OC(C)=O)[C@@H](C(C)C)[C@@H]2C=C(C)CC[C@@H]12", "values": [{"measurement": "IC50", "setting": "BV-2 [1]", "result": "> 50", "unit": "µM"}, {"measurement": "Activity", "setting": "BV-2 [2]", "result": "Non-Toxic"}]}
{"smiles": "O=c1c(O)c(-c2ccc(O)c(O)c2)oc2cc(O)cc(O)c12", "note": "[QUERCETIN]", "values": [{"measurement": "IC50", "setting": "BV-2 [1]", "result": 2.45, "unit": "µM"}]}
{"smiles": "C/C=C(\\C)C(=O)O[C@H]1[C@@H](O)[C@@H](C)O[C@@H](O[C@H]2C[C@@](C)(O)[C@H]3CC[C@](C)(O)[C@H]3[C@H]3[C@@H]2C3(C)C)[C@@H]1OC(C)=O", "values": [{"measurement": "IC50", "setting": "BV-2 [1]", "result": "> 50", "unit": "µM"}, {"measurement": "Activity", "setting": "BV-2 [2]", "result": "Non-Toxic"}]}
{"smiles": "CC(C)[C@@H]1CC[C@@]2(C)[C@H](O)CC[C@](C)(O)[C@@H]2[C@H]1O", "values": [{"measurement": "IC50", "setting": "BV-2 [1]", "result": "> 50", "unit": "µM"}, {"measurement": "Activity", "setting": "BV-2 [2]", "result": "Non-Toxic"}]}
{"smiles": "C=C1C[C@H](O[C@@H]2O[C@H](C)[C@H](O)[C@H](O)[C@H]2OC(C)=O)[C@H]2[C@@H]([C@H]3[C@@H]1CC[C@]3(C)O)C2(C)C", "values": [{"measurement": "IC50", "setting": "BV-2 [1]", "result": "> 50", "unit": "µM"}, {"measurement": "Activity", "setting": "BV-2 [2]", "result": "Non-Toxic"}]}
{"smiles": "C[C@@H]1CC[C@H]2[C@@H]1[C@H]1[C@@H](CC[C@@]2(C)O[C@@H]2O[C@H](C)[C@H](O)[C@H](O)[C@H]2O)C1(C)C", "values": [{"measurement": "IC50", "setting": "BV-2 [1]", "result": "> 50", "unit": "µM"}, {"measurement": "Activity", "setting": "BV-2 [2]", "result": "Non-Toxic"}]}
{"smiles": "CC(=O)O[C@H]1[C@H](O[C@]2(C)CC[C@@H]3[C@H]([C@@H]4[C@H](C)CC[C@@H]42)C3(C)C)O[C@H](C)[C@H](O)[C@@H]1OC(=O)/C=C(/C)CO", "values": [{"measurement": "IC50", "setting": "BV-2 [1]", "result": 17.6, "unit": "µM"}, {"measurement": "Activity", "setting": "BV-2 [2]", "result": "Non-Toxic"}]}
{"smiles": "C/C=C(/C)C(=O)O[C@H]1[C@@H](O)[C@@H](C)O[C@@H](O[C@]2(C)CC[C@@H]3[C@H]([C@@H]4[C@H](C)CC[C@@H]42)C3(C)C)[C@@H]1OC(C)=O", "values": [{"measurement": "IC50", "setting": "BV-2 [1]", "result": 1.43, "unit": "µM"}, {"measurement": "Activity", "setting": "BV-2 [2]", "result": "Non-Toxic"}]}
{"smiles": "C/C=C(/C)C(=O)O[C@@H]1[C@@H](OC(C)=O)[C@H](O[C@]2(C)CC[C@@H]3[C@H]([C@@H]4[C@H](C)CC[C@@H]42)C3(C)C)OC[C@H]1O", "values": [{"measurement": "IC50", "setting": "BV-2 [1]", "result": 24.1, "unit": "µM"}, {"measurement": "Activity", "setting": "BV-2 [2]", "result": "Non-Toxic"}]}
{"smiles": "CC(=O)O[C@@H]1[C@H](OC(=O)C=C(C)C)[C@@H](OC(C)=O)[C@H](O[C@@]2(C)CC[C@@H]3[C@H]([C@@H]4[C@H](C)CC[C@@H]42)C3(C)C)O[C@@H]1C", "values": [{"measurement": "IC50", "setting": "BV-2 [1]", "result": 0.95, "unit": "µM"}, {"measurement": "Activity", "setting": "BV-2 [2]", "result": "Non-Toxic"}, {"measurement": "Activity", "setting": "BV-2 [3]", "result": "Active"}, {"measurement": "Activity", "setting": "BV-2 [4]", "result": "Active"}]}
{"smiles": "C/C=C(/C)C(=O)O[C@H]1[C@H](O)[C@@H](OC(C)=O)[C@H](O[C@]2(C)CC[C@@H]3[C@H]([C@@H]4[C@H](C)CC[C@@H]42)C3(C)C)O[C@@H]1CO", "values": [{"measurement": "IC50", "setting": "BV-2 [1]", "result": 21.5, "unit": "µM"}, {"measurement": "Activity", "setting": "BV-2 [2]", "result": "Non-Toxic"}]}
{"smiles": "C[C@@H]1CC[C@H]2[C@@H]1[C@H]1[C@@H](CC[C@@]2(C)O)C1(C)C", "values": [{"measurement": "IC50", "setting": "BV-2 [1]", "result": "> 50", "unit": "µM"}, {"measurement": "Activity", "setting": "BV-2 [2]", "result": "Non-Toxic"}]}
{"smiles": "C=C1CC[C@@H](O)[C@]2(C)CC[C@@H](C(C)(C)O[C@@H]3O[C@H](C)[C@H](O)[C@H](OC(=O)/C(C)=C/C)[C@H]3OC(C)=O)[C@H](OC)[C@@H]12", "values": [{"measurement": "IC50", "setting": "BV-2 [1]", "result": "> 50", "unit": "µM"}, {"measurement": "Activity", "setting": "BV-2 [2]", "result": "Non-Toxic"}]}
{"smiles": "CC(=O)O[C@H]1[C@H](O[C@@]2(C)CC[C@@H]3[C@H]([C@@H]4[C@H](C)CC[C@@H]42)C3(C)C)O[C@H](C)[C@H](O)[C@@H]1OC(=O)C=C(C)C", "values": [{"measurement": "IC50", "setting": "BV-2 [1]", "result": 4.95, "unit": "µM"}, {"measurement": "Activity", "setting": "BV-2 [2]", "result": "Non-Toxic"}, {"measurement": "Activity", "setting": "BV-2 [3]", "result": "Active"}, {"measurement": "Activity", "setting": "BV-2 [4]", "result": "Active"}]}
{"smiles": "CC(=O)O[C@H]1[C@H](O[C@]2(C)CC[C@@H]3[C@H]([C@@H]4[C@H](C)CC[C@@H]42)C3(C)C)O[C@H](CO)[C@@H](O)[C@@H]1O", "values": [{"measurement": "IC50", "setting": "BV-2 [1]", "result": "> 50", "unit": "µM"}, {"measurement": "Activity", "setting": "BV-2 [2]", "result": "Non-Toxic"}]}
{"smiles": "C/C=C(/C)C(=O)O[C@H]1[C@H](O)[C@@H](CO)O[C@@H](O[C@]2(C)CC[C@@H]3[C@H]([C@@H]4[C@H](C)CC[C@@H]42)C3(C)C)[C@@H]1OC(C)=O", "values": [{"measurement": "IC50", "setting": "BV-2 [1]", "result": 6.27, "unit": "µM"}, {"measurement": "Activity", "setting": "BV-2 [2]", "result": "Non-Toxic"}, {"measurement": "Activity", "setting": "BV-2 [3]", "result": "Active"}, {"measurement": "Activity", "setting": "BV-2 [4]", "result": "Active"}]}
